Measurements published in patent publication US20100144737A1, “METHODS FOR INHIBITING T HELPER CELL DIFFERENTIATION” (FibroGen, Inc., priority 2008, published 2010).

Assays:
[1] = system: IL12Rβ2, IL18R1, and IL18RAP gene expression in T helper cells; experiment: IL-12-induced gene expression in T helper cells (quantitative RT-PCR); type: cell-based, human; details: TCR-stimulated T helper cells
Description: The effect of compounds and methods of the present invention on IL-12-induced gene expression in T helper cells was evaluated as follows. For these studies, analyses were performed to examine the effect of compounds of the present invention on expression of three genes induced by IL-12 in T helper cells: IL12Rβ2, IL18R1, and IL18RAP. (See, e.g., Saremeva et al. (2000) J hnmunol 165:1933-1938; Rogge et al. (1997) J Exp Med 185:825-831; and Nakahira et al. (2001) J Inmunol 167:1306-1312.)
Human cord blood naive T helper cells (AllCells LLC, Emeryville, Calif.) were stimulated (i.e., T cell receptor (TCR) stimulation) by seeding into 96-well culture dishes coated with 5 μg/ml anti-CD3 antibody (clone UCHT1, R&D Systems, Minneapolis, Minn.), and 5 μg/ml anti-CD28 antibody (clone ANC28.1/D10, Ancell Corporation, Bayport, Minn.), and cultured at 37° C., 5% CO2 in RPMI-1640 (Mediatech Inc., Herndon, Va.) containing 1% FBS, 1 U/ml penicillin-1 μg/ml streptomycin (Invitrogen Corporation, Carlsbad, California), and 50 U/ml IL-2 (Roche Diagnostics Corporation, Indianapolis, Ind.). At time of seeding, cells were cultured with media alone or with media containing 2 ng/ml IL-12 (R&D Systems, Minneapolis, Minn.) (to stimulate differentiation of the T helper cells into Th1 cells) and 10 μg/ml anti-IL-4 antibody (R&D Systems, Minneapolis, Minn.) (to block differentiation of the T helper cells into Th2 cells). Compound B or 1% DMSO (Veh) was added to the existing culture media and the cells cultured for an additional six days.
The cells were then lysed using Cell-to-Signal lysis buffer (Applied Biosystems, Foster City, Calif.) according to the manufacturer's instructions. The cell lysates were diluted with RNAse-free and DNAse-free water and used as templates in quantitative one-step duplex RT-PCR reactions using QuantiTect Multiplex RT-PCR Kit reagents (Qiagen Inc., Valencia, Calif.) and Taqman primers and probes (Applied Biosystems, Foster City, Calif.) as follows: IL18RAP Taqman primer/probe, catalog no. HS00187256M1; IL-12Rβ2 Taqman primer/probe, catalog no. HS00155486M1; EL18R1 Taqman primer/probe, catalog no. HS00175381M1; and TBET Taqman primer/probe, catalog no. HS00203436M1. RT-PCR reactions were performed according to the manufacturers' instructions. Changes in gene expression of IL12Rβ2, IL18R1, and IL18RAP following IL-12 addition in each sample were normalized relative to 18s ribosomal RNA gene expression measured in the same sample.

naïve T helper cells = experiment: Th1 cell differentiation: IFN-γ secretion after second and third TCR stimulation following washout; type: cell-based, human; details: another series, first TCR stimulation six days with IL-12, FIG. 8
Description: The effectiveness of compounds of the present invention at reducing Th1 differentiation was examined as follows. Th1 differentiation was induced by culturing anti-CD3 stimulated T cells in the presence of exogenous IL-12. Human cord blood naive T helper cells (AllCells LLC, Emeryville, Calif.) were stimulated (i.e., T cell receptor (TCR) stimulation) by seeding into 96-well culture dishes coated with 5 μg/ml anti-CD3 antibody (clone UCHT1, R&D Systems, Minneapolis, Minn.), and 5 μg/ml anti-CD28 antibody (clone ANC28.1/D10, Ancell Corporation, Bayport, Minn.), and cultured at 37° C., 5% CO2 in RPMI-1640 (Mediatech Inc., Hemdon, Va.) containing 1% FBS, 1 U/ml penicillin-1 μg/ml streptomycin (Invitrogen Corporation, Carlsbad, Calif.), and 50 U/ml IL-2 (Roche Diagnostics Corporation, Indianapolis, Ind.). At time of seeding, cells were cultured with media alone or with media containing 2 ng/ml IL-12 and 10 μg/ml anti-IL-4 to induce Th1 cell differentiation. […]
The cells were then collected, washed twice with RPMI-1640 media containing 1% FBS, and counted before equal numbers of cells per well were re-stimulated (second T cell receptor (TCR) stimulation following washout of all prior treatments) by re-seeding the cells into 96-well culture dishes coated with 5 μg/ml anti-CD3 antibody and 5 μg/ml anti-CD28 antibody. […] After 24 hours the conditioned media from the cells was collected and analyzed for IFN-γ levels using a MS2400 Tissue Culture Kit (MesoScale Technologies, Gaithersburg, Md.) according to the manufacturer's instructions.
Thirteen days after the second TCR stimulation described above, the cells were collected, washed twice with RPMI-1640 media containing 1% FBS, and counted before equal numbers of cells per well were stimulated a third time (third TCR stimulation) by re-seeding into 96-well culture dishes coated with 5 μg/ml anti-CD3 antibody and 5 μg/ml anti-CD28 antibody. […]
In another series of experiments, the effectiveness of compounds of the present invention at reducing Th1 differentiation was determined. […]

[2] = absence of IL-12, six days, normalized to 18s ribosomal RNA

Row | Structure (SMILES) | gene expression of IL12Rβ2 [1, 2] | gene expression of IL18R1 [1, 2] | gene expression of IL18RAP [1, 2] | IL-12-mediated increase in IL12Rβ2 gene expression ([1]; presence of IL-12, six days) | IL-12-mediated increase in IL18R1 gene expression ([1]; presence of IL-12, six days) | IL-12-mediated increase in IL18RAP gene expression ([1]; presence of IL-12, six days) | IFN-γ secretion following the second TCR stimulation (naïve T helper cells)
1 | O=C(O)CNC(=O)c1ncc2cc(Oc3ccccc3)ccc2c1O [Compound B, [(4-Hydroxy-7-phenoxy-isoquinoline-3-carbonyl)-amino]-acetic acid] | decrease | decrease | decrease | reduced | reduced | reduced | 
2 | Cc1ccc(Cl)c2cnc(C(=O)NCC(=O)O)c(O)c12 [Compound D, [(8-Chloro-4-hydroxy-5-methyl-isoquinoline-3-carbonyl)-amino]-acetic acid] |  |  |  |  |  |  | reduced IFN-γ secretion
